# Target: T1, crosslinked smooth muscle actomyosin (chicken gizzard smooth muscle myosin subfragment-1 crosslinked to cardiac or skeletal actin) (Gallus gallus, UniProt P10587)
# T1 construct: chicken gizzard smooth muscle myosin subfragment-1; from tissue; host or cells: chicken gizzard
# Experiment: Lead optimization pyruvate kinase/horseradish peroxidase/pyruvate oxidase-coupled ATPase assay (compound dose response)
# Type: biochemical
# Conditions: read-out: IC50 Arithmetic Mean
# How it was run: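 The ATPase used chicken gizzard smooth muscle myosin S1 chemically crosslinked to cardiac or skeletal actin, titrated to a set hydrolysis rate. It was coupled via pyruvate kinase/pyruvate oxidase/HRP in 12 mM K-PIPES pH 7.00 (22 °C) with 0.15 mM ATP, 2 mM MgCl2, 100 mM KCl and 0.1 mM Amplex Red. Fluorescence was read at ex 480/em 615 nm, and IC50 came from a 4-parameter fit.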
row,SMILES,IC50 [nM]
1,CCc1ccc(NC(=O)OCC[C@H](C)N(C)C(=O)NCc2ccccc2Cl)cc1 [N-{(1S)-3-[N-(4-ethylphenyl)carbamoyloxy]-1-methylpropyl}{[(2-chlorophenyl)methyl]amino}-N-methylcarboxamide],198
2,NCC(=O)N1CCC(COC(=O)Nc2ccc(C(F)(F)F)cc2Cl)(C(=O)NCc2ccccc2Cl)CC1 [[1-(2-aminoacetyl)-4-({N-[2-chloro-4-(trifluoromethyl)phenyl]carbamoyloxy}methyl)(4-piperidyl)]-N-[(2-chlorophenyl)methyl]carboxamide],440
3,NCC(=O)N1CCC(COC(=O)Nc2ccc(C(F)(F)F)cc2)(C(=O)NCc2ccccc2Cl)CC1 [[1-(2-aminoacetyl)-4-({N-[4-(trifluoromethyl)phenyl]carbamoyloxy}methyl)(4-piperidyl)]-N-[(2-chlorophenyl)methyl]carboxamide],285
4,N#Cc1ccccc1CNC(=O)C1(COC(=O)Nc2ccc(C(F)(F)F)cc2)CCN(C(=O)CN)CC1 [[1-(2-aminoacetyl)-4-({N-[4-(trifluoromethyl)phenyl]carbamoyloxy}methyl)(4-piperidyl)]-N-[(2-cyanophenyl)methyl]carboxamide],3240
5,Cc1ccc(NC(=O)OCC2(C(=O)NCc3ccccc3Cl)CCN(C(=O)CN)CC2)cc1C(F)(F)F [[1-(2-aminoacetyl)-4-({N-[4-methyl-3-(trifluoromethyl)phenyl]carbamoyloxy}methyl)(4-piperidyl)]-N-[(2-chlorophenyl)methyl]carboxamide],1970
6,N[C@@H](CO)C(=O)N1CCC(COC(=O)Nc2ccc(C(F)(F)F)cc2)(C(=O)NCc2ccccc2Cl)CC1 [[1-((2S)-2-amino-3-hydroxypropanoyl)-4-({N-[4-(trifluoromethyl)phenyl]carbamoyloxy}methyl)(4-piperidyl)]-N-[(2-chlorophenyl)methyl]carboxamide],138
7,CCc1ccc(NC(=O)OCCN(CCCCN)C(=O)NCc2ccccc2Cl)cc1 [[2-(N-(4-aminobutyl){[(2-chlorophenyl)methyl]amino}carbonylamino)ethoxy]-N-(4-ethylphenyl)carboxamide],346
8,CCc1ccc(NC(=O)OCCN(CCO)C(=O)NCc2ccccc2Cl)cc1 [[2-({[(2-chlorophenyl)methyl]amino}-N-(2-hydroxyethyl)carbonylamino)ethoxy]-N-(4-ethylphenyl)carboxamide],210
9,CCc1ccc(NC(=O)OC(C)CN(C)C(=O)NCc2ccccc2Cl)cc1 (stereo not drawn) [[2-({[(2-chlorophenyl)methyl]amino}-N-methylcarbonylamino)-isopropoxy]-N-(4-ethylphenyl)carboxamide],8520
10,"CCc1ccc(NC(=O)OCC2(C(=O)NCc3cccc(Cl)c3Cl)CCN(C(=O)CN)CC2)cc1 [[(1-(2-aminoacetyl)-4-{N-[(2,3-dichlorophenyl)methyl]carbamoyl}(4-piperidyl))methoxy]-N-(4-ethylphenyl)carboxamide]",88
11,"NCC(=O)N1CCC(COC(=O)Nc2ccc(C(F)(F)F)cc2)(C(=O)NCc2cccc(Cl)c2Cl)CC1 [[(1-(2-aminoacetyl)-4-{N-[(2,3-dichlorophenyl)methyl]carbamoyl}(4-piperidyl))methoxy]-N-[4-(trifluoromethyl)phenyl]carboxamide]",284
12,"CCc1ccc(NC(=O)OCC2(C(=O)NCc3cccc(F)c3F)CCN(C(=O)CN)CC2)cc1 [[(1-(2-aminoacetyl)-4-{N-[(2,3-difluorophenyl)methyl]carbamoyl}(4-piperidyl))methoxy]-N-(4-ethylphenyl)carboxamide]",164
13,"CCc1ccc(NC(=O)OCC2(C(=O)NCc3ccc(Cl)cc3Cl)CCN(C(=O)CN)CC2)cc1 [[(1-(2-aminoacetyl)-4-{N-[(2,4-dichlorophenyl)methyl]carbamoyl}(4-piperidyl))methoxy]-N-(4-ethylphenyl)carboxamide]",197
14,"CCc1ccc(NC(=O)OCC2(C(=O)NCc3ccc(C)cc3C)CCN(C(=O)CN)CC2)cc1 [[(1-(2-aminoacetyl)-4-{N-[(2,4-dimethylphenyl)methyl]carbamoyl}(4-piperidyl))methoxy]-N-(4-ethylphenyl)carboxamide]",576
15,CCc1ccc(NC(=O)OCC2(C(=O)NCc3ccccc3Br)CCN(C(=O)CN)CC2)cc1 [[(1-(2-aminoacetyl)-4-{N-[(2-bromophenyl)methyl]carbamoyl}(4-piperidyl))methoxy]-N-(4-ethylphenyl)carboxamide],146
16,CCc1ccc(NC(=O)OCC2(C(=O)NCc3ccc(F)cc3Cl)CCN(C(=O)CN)CC2)cc1 [[(1-(2-aminoacetyl)-4-{N-[(2-chloro-4-fluorophenyl)methyl]carbamoyl}(4-piperidyl))methoxy]-N-(4-ethylphenyl)carboxamide],158
17,CCc1ccc(NC(=O)OCC2(C(=O)NCc3ccccc3CC)CCN(C(=O)CN)CC2)cc1 [[(1-(2-aminoacetyl)-4-{N-[(2-ethylphenyl)methyl]carbamoyl}(4-piperidyl))methoxy]-N-(4-ethylphenyl)carboxamide],951

row,SMILES,IC50 [nM]
1,CCc1ccc(NC(=O)OCC2(C(=O)NCc3cccnc3C)CCN(C(=O)CN)CC2)cc1 [[(1-(2-aminoacetyl)-4-{N-[(2-methyl(3-pyridyl))methyl]carbamoyl}(4-piperidyl))methoxy]-N-(4-ethylphenyl)carboxamide],9440
2,CCc1ccc(NC(=O)OCC2(C(=O)NCc3cccc(Cl)c3F)CCN(C(=O)CN)CC2)cc1 [[(1-(2-aminoacetyl)-4-{N-[(3-chloro-2-fluorophenyl)methyl]carbamoyl}(4-piperidyl))methoxy]-N-(4-ethylphenyl)carboxamide],99
3,NCC(=O)N1CCC(COC(=O)Nc2ccc(C(F)(F)F)cc2)(C(=O)NCc2cccc(Cl)c2F)CC1 [[(1-(2-aminoacetyl)-4-{N-[(3-chloro-2-fluorophenyl)methyl]carbamoyl}(4-piperidyl))methoxy]-N-[4-(trifluoromethyl)phenyl]carboxamide],370
4,CCc1ccc(NC(=O)OCC2(C(=O)NCc3cccc(Cl)c3C)CCN(C(=O)CN)CC2)cc1 [[(1-(2-aminoacetyl)-4-{N-[(3-chloro-2-methylphenyl)methyl]carbamoyl}(4-piperidyl))methoxy]-N-(4-ethylphenyl)carboxamide],83
5,Cc1c(Cl)cccc1CNC(=O)C1(COC(=O)Nc2ccc(C(F)(F)F)cc2)CCN(C(=O)CN)CC1 [[(1-(2-aminoacetyl)-4-{N-[(3-chloro-2-methylphenyl)methyl]carbamoyl}(4-piperidyl))methoxy]-N-[4-(trifluoromethyl)phenyl]carboxamide],179
6,CCc1ccc(NC(=O)OCC2(C(=O)NCc3cccc(Cl)c3)CCN(C(=O)CN)CC2)cc1 [[(1-(2-aminoacetyl)-4-{N-[(3-chlorophenyl)methyl]carbamoyl}(4-piperidyl))methoxy]-N-(4-ethylphenyl)carboxamide],729
7,CCc1ccc(NC(=O)OCC2(C(=O)NCc3cccc(F)c3C)CCN(C(=O)CN)CC2)cc1 [[(1-(2-aminoacetyl)-4-{N-[(3-fluoro-2-methylphenyl)methyl]carbamoyl}(4-piperidyl))methoxy]-N-(4-ethylphenyl)carboxamide],81
8,Cc1c(F)cccc1CNC(=O)C1(COC(=O)Nc2ccc(C(F)(F)F)cc2)CCN(C(=O)CN)CC1 [[(1-(2-aminoacetyl)-4-{N-[(3-fluoro-2-methylphenyl)methyl]carbamoyl}(4-piperidyl))methoxy]-N-[4-(trifluoromethyl)phenyl]carboxamide],412
9,CCc1ccc(NC(=O)OCC2(C(=O)NCc3cccc(F)c3)CCN(C(=O)CN)CC2)cc1 [[(1-(2-aminoacetyl)-4-{N-[(3-fluorophenyl)methyl]carbamoyl}(4-piperidyl))methoxy]-N-(4-ethylphenyl)carboxamide],1030
10,CCc1ccc(NC(=O)OCC2(C(=O)NCc3ncccc3C)CCN(C(=O)CN)CC2)cc1 [[(1-(2-aminoacetyl)-4-{N-[(3-methyl(2-pyridyl))methyl]carbamoyl}(4-piperidyl))methoxy]-N-(4-ethylphenyl)carboxamide],2980
11,CCc1ccc(NC(=O)OCC2(C(=O)NCc3ccc(Cl)cc3F)CCN(C(=O)CN)CC2)cc1 [[(1-(2-aminoacetyl)-4-{N-[(4-chloro-2-fluorophenyl)methyl]carbamoyl}(4-piperidyl))methoxy]-N-(4-ethylphenyl)carboxamide],262
12,CCc1ccc(NC(=O)OCC2(C(=O)NCc3ccc(Cl)cc3C)CCN(C(=O)CN)CC2)cc1 [[(1-(2-aminoacetyl)-4-{N-[(4-chloro-2-methylphenyl)methyl]carbamoyl}(4-piperidyl))methoxy]-N-(4-ethylphenyl)carboxamide],145
13,CCc1ccc(NC(=O)OCC2(C(=O)NCc3ccc(Cl)cc3)CCN(C(=O)CN)CC2)cc1 [[(1-(2-aminoacetyl)-4-{N-[(4-chlorophenyl)methyl]carbamoyl}(4-piperidyl))methoxy]-N-(4-ethylphenyl)carboxamide],1280
14,CCc1ccc(NC(=O)OCC2(C(=O)NCc3ccc(F)cc3)CCN(C(=O)CN)CC2)cc1 [[(1-(2-aminoacetyl)-4-{N-[(4-fluorophenyl)methyl]carbamoyl}(4-piperidyl))methoxy]-N-(4-ethylphenyl)carboxamide],1100
15,CCc1ccc(NC(=O)OCC2(C(=O)NCc3ncc[nH]3)CCN(C(=O)CNC(=O)OC(C)(C)C)CC2)cc1 [[(1-{2-[(tert-butoxy)carbonylamino]acetyl}-4-[N-(imidazol-2-ylmethyl)carbamoyl](4-piperidyl))methoxy]-N-(4-ethylphenyl)carboxamide],1770
16,CCc1ccc(NC(=O)OCC2(C(=O)NCc3ccc(F)cc3Cl)CCN(C(=O)CNC(=O)OC(C)(C)C)CC2)cc1 [[(1-{2-[(tert-butoxy)carbonylamino]acetyl}-4-{N-[(2-chloro-4-fluorophenyl)methyl]carbamoyl}(4-piperidyl))methoxy]-N-(4-ethylphenyl)carboxamide],1080

# From US8071625B2, “Certain chemical entities, compositions, and methods” (Cytokinetics, Inc., priority 2006, dated 2011)
